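Test compounds were applied to cells in 96-well plates for 48 hours at 5 doses. GI50 is the concentration that inhibits growth by half. TGI marks complete inhibition of growth.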
Tests used:
Assay in all cases: NCI-60 cell line screen, 48 h
SF-268 CNS = test system: SF-268 CNS
UO-31 renal = test system: UO-31 renal
MALME-3M melanoma = test system: MALME-3M melanoma
OVCAR-3 ovarian = test system: OVCAR-3 ovarian
SK-MEL-2 melanoma = test system: SK-MEL-2 melanoma
NCI-H522 lung = test system: NCI-H522 lung
RXF 393 renal = test system: RXF 393 renal
SF-539 CNS = test system: SF-539 CNS
ACHN renal = test system: ACHN renal
TK-10 renal = test system: TK-10 renal
M14 melanoma = test system: M14 melanoma
SNB-75 CNS = test system: SNB-75 CNS
CCRF-CEM leukemia = test system: CCRF-CEM leukemia
U251 CNS = test system: U251 CNS
IGROV1 ovarian = test system: IGROV1 ovarian
OVCAR-8 ovarian = test system: OVCAR-8 ovarian
MOLT-4 leukemia = test system: MOLT-4 leukemia
KM12 colon = test system: KM12 colon
A498 renal = test system: A498 renal
COLO 205 colon = test system: COLO 205 colon
CAKI-1 renal = test system: CAKI-1 renal
SNB-19 CNS = test system: SNB-19 CNS
A549 NSCLC = test system: A549 NSCLC
SN12C renal = test system: SN12C renal
HOP-92 NSCLC = test system: HOP-92 NSCLC
UACC-257 melanoma = test system: UACC-257 melanoma
MDA-MB-435 = test system: MDA-MB-435
HL-60(TB) leukemia = test system: HL-60(TB) leukemia
SK-MEL-28 melanoma = test system: SK-MEL-28 melanoma
HOP-62 NSCLC = test system: HOP-62 NSCLC
OVCAR-4 ovarian = test system: OVCAR-4 ovarian
OVCAR-5 ovarian = test system: OVCAR-5 ovarian
SF-295 CNS = test system: SF-295 CNS
EKVX NSCLC = test system: EKVX NSCLC
HS 578T breast = test system: HS 578T breast
SW-620 colon = test system: SW-620 colon
SK-OV-3 ovarian = test system: SK-OV-3 ovarian
HCC-2998 colon = test system: HCC-2998 colon
SR leukemia = test system: SR leukemia
K-562 leukemia = test system: K-562 leukemia
786-0 renal = test system: 786-0 renal
HT29 colon = test system: HT29 colon
DU-145 prostate = test system: DU-145 prostate
HCT-116 colon = test system: HCT-116 colon
NCI-H226 lung = test system: NCI-H226 lung
HCT-15 colon = test system: HCT-15 colon
NCI-H460 lung = test system: NCI-H460 lung
BT-549 breast = test system: BT-549 breast
PC-3 prostate = test system: PC-3 prostate
SK-MEL-5 melanoma = test system: SK-MEL-5 melanoma
RPMI-8226 leukemia = test system: RPMI-8226 leukemia
MCF7 breast = test system: MCF7 breast
NCI/ADR-RES ovarian = test system: NCI/ADR-RES ovarian

Cc1ccc2c(n1)C(=O)C(Cl)=C(Nc1cccc(C)c1C)C2=O
GI50 (SF-268 CNS): 1610 nM
TGI (SF-268 CNS): 3480 nM
GI50 (UO-31 renal): 1460 nM
TGI (UO-31 renal): 2950 nM
GI50 (MALME-3M melanoma): 1830 nM
TGI (MALME-3M melanoma): 3300 nM
GI50 (OVCAR-3 ovarian): 372 nM
TGI (OVCAR-3 ovarian): 1400 nM
GI50 (SK-MEL-2 melanoma): 1910 nM
TGI (SK-MEL-2 melanoma): 3840 nM
GI50 (NCI-H522 lung): 1960 nM
TGI (NCI-H522 lung): 4580 nM
GI50 (RXF 393 renal): 1520 nM
TGI (RXF 393 renal): 2880 nM
GI50 (SF-539 CNS): 1670 nM
TGI (SF-539 CNS): 3160 nM
GI50 (ACHN renal): 1620 nM
TGI (ACHN renal): 3190 nM
GI50 (TK-10 renal): 2470 nM
TGI (TK-10 renal): 4200 nM
GI50 (M14 melanoma): 1610 nM
TGI (M14 melanoma): 3190 nM
GI50 (SNB-75 CNS): 1460 nM
TGI (SNB-75 CNS): 2920 nM
GI50 (CCRF-CEM leukemia): 1250 nM
TGI (CCRF-CEM leukemia): 5220 nM
GI50 (U251 CNS): 1550 nM
TGI (U251 CNS): 3080 nM
GI50 (IGROV1 ovarian): 1680 nM
TGI (IGROV1 ovarian): 3720 nM
GI50 (OVCAR-8 ovarian): 2020 nM
TGI (OVCAR-8 ovarian): 7410 nM
GI50 (MOLT-4 leukemia): 827 nM
TGI (MOLT-4 leukemia): 3350 nM
GI50 (KM12 colon): 1950 nM
TGI (KM12 colon): 4540 nM
GI50 (A498 renal): 2230 nM
TGI (A498 renal): 5190 nM
GI50 (COLO 205 colon): 2030 nM
TGI (COLO 205 colon): 4720 nM
GI50 (CAKI-1 renal): 1570 nM
TGI (CAKI-1 renal): 3120 nM
GI50 (SNB-19 CNS): 1920 nM
TGI (SNB-19 CNS): 5080 nM
GI50 (A549 NSCLC): 2150 nM
TGI (A549 NSCLC): 5000 nM
GI50 (SN12C renal): 1670 nM
TGI (SN12C renal): 4350 nM
GI50 (HOP-92 NSCLC): 1980 nM
TGI (HOP-92 NSCLC): 3950 nM
GI50 (UACC-257 melanoma): 1440 nM
TGI (UACC-257 melanoma): 2800 nM
GI50 (MDA-MB-435): 1890 nM
TGI (MDA-MB-435): 3720 nM
GI50 (HL-60(TB) leukemia): 1150 nM
TGI (HL-60(TB) leukemia): 3490 nM
GI50 (SK-MEL-28 melanoma): 1930 nM
TGI (SK-MEL-28 melanoma): 3700 nM
GI50 (HOP-62 NSCLC): 1550 nM
TGI (HOP-62 NSCLC): 2960 nM
GI50 (OVCAR-4 ovarian): 1140 nM
TGI (OVCAR-4 ovarian): 2420 nM
GI50 (OVCAR-5 ovarian): 2010 nM
TGI (OVCAR-5 ovarian): 3930 nM
GI50 (SF-295 CNS): 1840 nM
TGI (SF-295 CNS): 3390 nM
GI50 (EKVX NSCLC): 1580 nM
TGI (EKVX NSCLC): 3730 nM
GI50 (HS 578T breast): 2210 nM
TGI (HS 578T breast): 6230 nM
GI50 (SW-620 colon): 2060 nM
TGI (SW-620 colon): 4820 nM
GI50 (SK-OV-3 ovarian): 1590 nM
TGI (SK-OV-3 ovarian): 3640 nM
GI50 (HCC-2998 colon): 1920 nM
TGI (HCC-2998 colon): 3770 nM
GI50 (SR leukemia): 600 nM
TGI (SR leukemia): 3210 nM
GI50 (K-562 leukemia): 770 nM
TGI (K-562 leukemia): 3580 nM
GI50 (786-0 renal): 1900 nM
TGI (786-0 renal): 4080 nM
GI50 (HT29 colon): 2680 nM
TGI (HT29 colon): 7160 nM
GI50 (DU-145 prostate): 1650 nM
TGI (DU-145 prostate): 3200 nM
GI50 (HCT-116 colon): 871 nM
TGI (HCT-116 colon): 2600 nM
GI50 (NCI-H226 lung): 1940 nM
TGI (NCI-H226 lung): 4390 nM
GI50 (HCT-15 colon): 1130 nM
TGI (HCT-15 colon): 2730 nM
GI50 (NCI-H460 lung): 2250 nM
TGI (NCI-H460 lung): 5620 nM
GI50 (BT-549 breast): 1580 nM
TGI (BT-549 breast): 3040 nM
GI50 (PC-3 prostate): 1430 nM
TGI (PC-3 prostate): 3480 nM
GI50 (SK-MEL-5 melanoma): 1620 nM
TGI (SK-MEL-5 melanoma): 3020 nM
GI50 (RPMI-8226 leukemia): 1350 nM
TGI (RPMI-8226 leukemia): 4120 nM
GI50 (MCF7 breast): 1160 nM
TGI (MCF7 breast): 2950 nM
GI50 (NCI/ADR-RES ovarian): 1920 nM
TGI (NCI/ADR-RES ovarian): 6600 nM

— PubChem BioAssay (NCI)
